In article PMC12131788, “Discovery of natural CdnP inhibitors through structure-based virtual screening and molecular dynamics simulations” (Microbiology Spectrum, 2025):

What was measured:
CdnP [1] = target: T1, CdnP (Mycobacterium tuberculosis, UniProt P71615); conditions: cited from earlier work
CdnP (Rv2837c) = target: T2, CdnP (Rv2837c) (Mycobacterium tuberculosis, UniProt P71615); assay: High-throughput enzymatic activity assay (coralyne/c-di-AMP fluorescence); format: biochemical; conditions: for inhibitory activity against CdnP: at concentrations as high as 1 mM (data not shown); for IC50: 100 nM CdnP, 15 µM c-di-AMP, 37°C, read-out: IC50 (half maximal inhibitory concentration)
T2 construct: pET32a vector-encoded fusion (Trx / His6 / S-tag; composition from own knowledge of the vector, His tag consistent with Ni-NTA purification) (N); made in house; host or cells: Escherichia coli BL21(DE3)

CdnP [2] = target: T1, CdnP; assay: Surface plasmon resonance (SPR) binding assay; conditions: for kon: read-out: 1:1 binding ka
Protocol: Binding affinity between CdnP and test compounds was determined using a Biacore 1K instrument (Cytiva). Recombinant CdnP was immobilized on a Series S CM5 sensor chip according to manufacturer’s protocols. Association and dissociation kinetics were measured using a pre-established multi-cycle kinetics/affinity protocol with eight serially diluted compound concentrations in running buffer (10 mM HEPES, pH 7.4, 150 mM NaCl, 3 mM EDTA, 0.005% [vol/vol] Surfactant P20, and 5% [vol/vol] DMSO). Binding data were analyzed using the multi-cycle kinetics model to determine association rate (Ka), dissociation rate (Kd), and equilibrium dissociation constant (KD) values.

[3] = 1:1 binding, multi-cycle kinetics

T1 sequence (P71615 whole entry, looked up): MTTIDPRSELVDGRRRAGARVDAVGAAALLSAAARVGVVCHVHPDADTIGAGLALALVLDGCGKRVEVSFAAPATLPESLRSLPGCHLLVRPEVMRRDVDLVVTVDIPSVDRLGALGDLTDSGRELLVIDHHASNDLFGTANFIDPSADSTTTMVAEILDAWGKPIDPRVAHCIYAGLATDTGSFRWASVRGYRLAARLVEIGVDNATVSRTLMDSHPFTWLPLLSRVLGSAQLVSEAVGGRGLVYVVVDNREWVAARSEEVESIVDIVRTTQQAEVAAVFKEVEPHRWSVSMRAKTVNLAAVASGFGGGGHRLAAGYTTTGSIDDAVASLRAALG
T2 sequence (P71615 whole entry, the tested form may be a part): as the sequence (P71615 whole entry, looked up) above

Row | Compound | IC50 (CdnP [1]) [µM] | inhibitory activity against CdnP (CdnP (Rv2837c)) | inhibition of CdnP (CdnP [1]) | IC50 (CdnP (Rv2837c)) [µM] | Quality kinetics Chi^2 (CdnP [2]) [RU^2] | kd (CdnP [2]) [s⁻¹] | tc (CdnP [2]) | Kd (CdnP [2]) [µM] | Kd (CdnP [2]; [3]) [µM] | kon (CdnP [2]) [M⁻¹ s⁻¹] | Rmax (CdnP [2]) [RU]
1 | CC(OCCCCOC(C)n1cnc2c(=O)[nH]cnc21)n1cnc2c(=O)[nH]cnc21 (stereo not shown) [NCI 79195] | 9.66 | – | – | – | – | – | – | – | – | – | –
2 | CN1CC(=O)N2[C@H](c3ccc4c(c3)OCO4)c3[nH]c4ccccc4c3C[C@@H]2C1=O [tadalafil] | – | no detectable inhibitory activity | mild inhibition | – | – | – | – | – | – | – | –
3 | C[C@@H]1O[C@@H](O[C@H]2[C@H](Oc3cc(O)c4c(=O)cc(-c5ccc(O)cc5)oc4c3)O[C@H](CO)[C@@H](O)[C@@H]2O)[C@H](O)[C@H](O)[C@H]1O [Rhoifolin] | – | – | – | 20.3 ± 1.74 | 2.02e-01 | 0.209 | 1.49e+08 | 0.97 | 0.972 | 215000 | –
4 | COc1ccc([C@]2(C#N)CC[C@@H](C(=O)O)CC2)cc1OC1CCCC1 [Cilomilast, reference compound] | – | no detectable inhibitory activity | mild inhibition | > 1000 | 3.17e-01 | 0.465 | 6.30e+06 | – | 44200 | 10.5 | 1733.5
5 | O=C1CCc2cc(OCCCCc3nnnn3C3CCCCC3)ccc2N1 [Cilostazol, reference compound] | – | no detectable inhibitory activity | mild inhibition | > 1000 | 7.64e-02 | 0.321 | 5.48e+09 | – | 4.18 | 76700 | –
6 | COc1ccc(-c2cc(=O)c3c(O)cc(O[C@@H]4O[C@H](CO)[C@@H](O)[C@H](O)[C@H]4O[C@@H]4O[C@@H](C)[C@H](O)[C@@H](O)[C@H]4O)cc3o2)cc1O [Neodiosmin] | – | – | – | 5.5 ± 1.94 | 8.92e-02 | 0.00229 | 1.17e+08 | 380 | 384 | 5.95 | 26.8
7 | Cc1cc(O)c2c3c1C(=O)C1c4c(c(O)cc5cc(O)cc(C)c45)[C@@]3(COC2=O)[C@H]1O [Macrosporusone A] | – | – | – | 16.8 ± 0.44 | 2.46e+00 | 1.62e-07 | 1.02e+08 | – | – | 254000 | –
8 | CCCc1nn(C)c2c(=O)[nH]c(-c3cc(S(=O)(=O)N4CCN(C)CC4)ccc3OCC)nc12 [sildenafil] | – | no detectable inhibitory activity | mild inhibition | – | – | – | – | – | – | – | –
9 | C[C@@H]1O[C@@H](OC[C@H]2O[C@@H](Oc3cc(O)c4c(=O)cc(-c5ccc(O)cc5)oc4c3)[C@H](O[C@@H]3O[C@@H](C)[C@H](O)[C@@H](O)[C@H]3O)[C@@H](O)[C@@H]2O)[C@H](O)[C@H](O)[C@H]1O [Ligustroflavone] | – | – | – | 39.5 ± 1.74 | 4.90e-02 | 6.42e-06 | 1.16e+08 | – | 0.0189 | 339 | 1.0
